Counter-ions that a name gives are not always drawn.
Legend:
[1] = after oral administration; cited from earlier work
[2] = acidic stomach pH; cited from earlier work
[3] = In vitro transmucosal permeation of liraglutide through porcine sublingual mucosa (Franz diffusion cell); type: in vitro ADME; settings: from nanofibre carrier
Description: The liraglutide containing nanofibre carrier samples or the reference solution samples were applied onto fresh porcine sublingual mucosa of thickness ca 0.4 mm fixed in a Franz diffusion cell. An exposed mucosal area for permeation was 1.0 cm^2, and the stirred acceptor phase was phosphate buffer pH 7.4 tempered at 37°±0.5° C. Both the tested solutions (Victoza pre-filled pen for subcutaneous injection, 6 mg/mL and the liraglutide solution in buffer pH 6.80, 0.4 mg/mL) were applied onto the sublingual membrane in 400 μL volume. Donor nanofibre samples contained 0.5 mg of liraglutide in the form of a multilayered nanofibre disc and were suffused in donor space with 400 μL of buffer pH 6.80 or 8.15, respectively.
Determination of liraglutide was performed on an Agilent 1200 instrument. The parameters were as follows: Column Poroshell 120 EC-C18 (4.6×150 mm, particle size: 5.0 μm) was thermostated at 35° C. Samples were kept at 10° C., injection 5.00 μL. Mobile Phase A: Na2HPO4 (pH 7.75):ACN (85:15) was mixed with Mobile Phase B: ACN in gradient and pumped at speed 1.200 mL/min. Detector wavelength: 215 nm. Resulting liraglutide retention time was ca 3.4 min.

In the case of `CNS(=O)(=O)Cc1ccc2[nH]cc(CCN(C)C)c2c1` [sumatriptan], the oral bioavailability [1] is given as 15%.
For `CCCCCCOC(=O)NC(=N)c1ccc(NCc2nc3cc(C(=O)N(CCC(=O)OCC)c4ccccn4)ccc3n2C)cc1` [DG, Dabigatran ethexylate mesylate], the solubility [2] is listed as “very good”.
In the case of `CCCCCCCCCCCCCCCC(=O)N[C@@H](CCC(=O)NCCCC[C@H](NC(=O)[C@H](C)NC(=O)[C@H](C)NC(=O)[C@H](CCC(N)=O)NC(=O)CNC(=O)[C@H](CCC(=O)O)NC(=O)[C@H](CC(C)C)NC(=O)[C@H](Cc1ccc(O)cc1)NC(=O)[C@H](CO)NC(=O)[C@H](CO)NC(=O)[C@@H](NC(=O)[C@H](CC(=O)O)NC(=O)[C@H](CO)NC(=O)[C@@H](NC(=O)[C@H](Cc1ccccc1)NC(=O)[C@@H](NC(=O)CNC(=O)[C@H](CCC(=O)O)NC(=O)[C@H](C)NC(=O)[C@@H](N)Cc1cnc[nH]1)[C@@H](C)O)[C@@H](C)O)C(C)C)C(=O)N[C@@H](CCC(=O)O)C(=O)N[C@@H](Cc1ccccc1)C(=O)N[C@H](C(=O)N[C@@H](C)C(=O)N[C@@H](Cc1c[nH]c2ccccc12)C(=O)N[C@@H](CC(C)C)C(=O)N[C@H](C(=O)N[C@@H](CCCNC(=N)N)C(=O)NCC(=O)N[C@@H](CCCNC(=N)N)C(=O)NCC(=O)O)C(C)C)[C@@H](C)CC)C(=O)O` [Liraglutide], the “duration of further sublingual permeation in vitro” value [3] is reported as “about 1 hour” and the “transmucosal permeation through the sublingual membrane” value ([3]; FIG. 5) is reported as “able to permeate transmucosally”.
